Laboratory results taken from ChEMBL document CHEMBL1133622, “Probes for narcotic receptor-mediated phenomena. 27. Synthesis and pharmacological evaluation of selective delta-opioid receptor agonists from 4-[(alphaR)-alpha-(2S,5R)-4-substituted-2, 5-dimethyl-1-piperazinyl-3-methoxybenzyl]-N,N-diethylbenzamides and their enantiomers” (J Med Chem, 2000).

Tests used:
[1] = molecular target: Delta-type opioid receptor (Rattus norvegicus, UniProt P33533); test: Inhibition of [3H]-DADLE binding to rat brain membrane Opioid receptor delta 1
Delta-type opioid receptor, sequence (P33533 whole entry): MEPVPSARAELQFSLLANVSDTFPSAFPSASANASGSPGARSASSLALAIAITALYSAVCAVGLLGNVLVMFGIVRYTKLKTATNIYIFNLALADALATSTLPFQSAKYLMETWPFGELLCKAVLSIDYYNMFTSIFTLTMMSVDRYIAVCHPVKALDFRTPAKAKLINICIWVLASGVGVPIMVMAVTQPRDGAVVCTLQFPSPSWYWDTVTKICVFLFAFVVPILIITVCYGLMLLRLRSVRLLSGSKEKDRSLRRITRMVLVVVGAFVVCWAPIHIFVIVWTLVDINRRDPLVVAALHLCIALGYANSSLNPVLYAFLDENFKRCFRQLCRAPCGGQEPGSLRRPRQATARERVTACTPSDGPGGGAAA

[2] = molecular target: Delta-type opioid receptor (Rattus norvegicus) (UniProt P33533); test: Percent inhibition of SNC80 stimulated [35S]GTP-gamma-S, binding at 10 uM; type: functional
Delta-type opioid receptor (Rattus norvegicus), sequence (P33533 whole entry): as above

[3] = molecular target: Delta-type opioid receptor (Rattus norvegicus) (UniProt P33533); test: Percent stimulation of [35S]GTP-gamma-S, binding at 10 uM; type: functional
Rattus norvegicus [4] = species on record: Rattus norvegicus; test: (§1) Percent inhibition of SNC80 stimulated [35S]GTP-gamma-S, binding by the compound (10 uM); type: functional
[5] = molecular target: Delta-type opioid receptor (Rattus norvegicus) (UniProt P33533); test: as §1; type: functional
Rattus norvegicus [6] = species on record: Rattus norvegicus; test: Percent stimulation of [35S]GTP-gamma-S, binding by the compound (10 uM); type: functional

Row | Compound | Ki [1] [nM] | inhibition [2] [%] | Stimulation [3] [%] | Inhibition (Rattus norvegicus [4]) [%] | inhibition [5] [%] | Stimulation (Rattus norvegicus [6]) [%]
1 | CCN(CC)C(=O)c1ccc([C@H](c2cccc(OC)c2)N2C[C@@H](C)N(C)C[C@@H]2C)cc1 | 4.5 | 18 | 25 | – | – | –
2 | CCCCN1C[C@H](C)N([C@H](c2ccc(C(=O)N(CC)CC)cc2)c2cccc(OC)c2)C[C@H]1C | 2.7 | – | 66 | 19 | – | –
3 | CCCCCN1C[C@H](C)N([C@H](c2ccc(C(=O)N(CC)CC)cc2)c2cccc(OC)c2)C[C@H]1C | 4.7 | – | 26 | – | 28 | –
4 | CCN(CC)C(=O)c1ccc([C@H](c2cccc(OC)c2)N2C[C@@H](C)NC[C@@H]2C)cc1 | 4.7 | 11 | 63 | – | – | –
5 | C=C(C)CN1C[C@H](C)N([C@H](c2ccc(C(=O)N(CC)CC)cc2)c2cccc(OC)c2)C[C@H]1C | 4.8 | 2.3 | 119 | – | – | –
6 | CCN(CC)C(=O)c1ccc([C@H](c2cccc(OC)c2)N2C[C@@H](C)N(CC)C[C@@H]2C)cc1 | 5.2 | – | 45 | – | 13 | –
7 | CCN(CC)C(=O)c1ccc([C@H](c2cccc(OC)c2)N2C[C@@H](C)N(CCc3ccccc3)C[C@@H]2C)cc1 | 30.6 | 30 | 10 | – | – | –
8 | CCCCCCN1C[C@H](C)N([C@H](c2ccc(C(=O)N(CC)CC)cc2)c2cccc(OC)c2)C[C@H]1C | 10.4 | 34 | 21 | – | – | –
9 | C/C=C/CN1C[C@H](C)N([C@H](c2ccc(C(=O)N(CC)CC)cc2)c2cccc(OC)c2)C[C@H]1C | 1.9 | 6.3 | 130 | – | – | –
10 | CCN(CC)C(=O)c1ccc([C@H](c2cccc(OC)c2)N2C[C@@H](C)N(CC3CC3)C[C@@H]2C)cc1 | 3.5 | – | 48 | – | 18 | –
11 | CCN(CC)C(=O)c1ccc([C@H](c2cccc(OC)c2)N2C[C@@H](C)N(CCCc3ccccc3)C[C@@H]2C)cc1 | 16.7 | 13 | 18 | – | – | –
12 | CCN(CC)C(=O)c1ccc([C@H](c2cccc(OC)c2)N2C[C@@H](C)N(Cc3ccccc3)C[C@@H]2C)cc1 | 6.2 | 0 | 144 | – | – | –
13 | C=CCN1C[C@H](C)N([C@H](c2ccc(C(=O)N(CC)CC)cc2)c2cccc(OC)c2)C[C@H]1C [SNC-80] | – | – | – | 0 | – | 128
